Experiments:
[1] = target: GST-CBP(1081-1197) bromodomain (Homo sapiens (Human), UniProt Q92793); test: CBP AlphaScreen Assay; details: binding to biotin-H4(1-21) Ac-K5/8/12/16
Description: (§1) Specific binding of the CBP or BRD4 bromodomain to the acetylated peptide derived from the H4 histone substrate (tetra acetylated H4(1-21) Ac-K5/8/12/16) was measured in absence or presence of inhibitors. The GST tagged bromodomains of CBP (1081-1197) and BRD4 (49-170) were obtained from BPS Bioscience and binding to the biotinylated H4(1-21) Ac-K5/8/12/16 (AnaSpec. 64989) was assessed via AlphaScreen technology (Perkin Elmer).
(§2) 5 nM GST-CBP(1081-1197) and 20 nM biotin-H4(1-21) Ac-K5/8/12/16 (AnaSpec. 64989) were incubated with varying concentrations of CBP inhibitors in 15 μL of buffer containing 50 mM HEPES 7.5, […], 1 mM TCEP, and 0.003% Tween-20. After 30 minutes incubation at room temperature, 15 μL of detection buffer (BPS Bio. 33006) containing 7 μg/mL of Glutathione AlphaLisa acceptor beads (Perkin Elmer AL109) and 14 μg/mL of Streptavidin donor beads (Perkin Elmer 676002) was then added to the previous mixture. The reaction was incubated for an additional 2 hours at room temperature, and the AlphaScreen signal was quantified using the Envision Multilabel plate reader. As negative control, GST-CBP(1081-1197) was incubated with the non-acetylated biotin-H4(1-21) peptide(AnaSpec. 62555) and in presence of 0.25% of final DMSO concentration.
(§3) the binding of 2.5 nM of BRD4(49-170) to 10 nM biotin-H4(1-21) Ac-K5/8/12/16 (AnaSpec. 64989) was assessed following the same procedure described for the CBP assay. The standard dose response curves were fitted by Genedata Screener software using the variable-slope model: Signal=Signalnegative control+(SignalDMSO control−Signalnegative control)/(1+(IC50/Dose)^Hill slope).
(§4) Only Signal and Dose in the equation were treated as know values.

[2] = target: BRD4(49-170) bromodomain (Homo sapiens (Human), UniProt O60885); test: BRD4 AlphaScreen Assay; details: binding to biotin-H4(1-21) Ac-K5/8/12/16
Description: as §1, §2, §3, §4

Chain of GST-CBP(1081-1197) bromodomain (Q92793 1081-1197): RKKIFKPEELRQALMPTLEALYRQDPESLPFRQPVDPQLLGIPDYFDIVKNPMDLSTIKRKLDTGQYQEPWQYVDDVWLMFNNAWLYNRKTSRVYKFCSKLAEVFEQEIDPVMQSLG

Structure (SMILES)	IC50 [1]	IC50 [2]
CN1Cc2c(-c3ccc4c(c3)c(-c3cnn(C)c3)nn4C)nc(C3CC3)n2CC1=O [Example 107, 3-cyclopropyl-7-methyl-1-(1-methyl-3-(1-methyl-1H-pyrazol-4-yl)-1H-indazol-5-yl)-7,8-dihydroimidazo [1,5-a] pyrazin-6(5H)-one]	29 nM	6820 nM
CC1C(=O)N(C)Cc2c(-c3cccc4nc(-c5nsc(=O)[nH]5)c(C(F)F)cc34)nc(C3CC3)n21 (centres unmarked) [Example 46, 3-(5-(3-Cyclopropyl-5,7-dimethyl-6-oxo-5,6,7,8-tetrahydroimidazo[1,5-a]pyrazin-1-yl)-3-(difluoromethyl)quinolin-2-yl)-1,2,4-thiadiazol-5(4H)-one]	2 nM	341 nM
CN1Cc2c(-c3c(F)ccc4cc(C5CCOCC5)ncc34)nc(C3CCOCC3)n2CC1=O [Example 101, 1-(7-fluoro-3-(tetrahydro-2H-pyran-4-yl)isoquinolin-8-yl)-7-methyl-3-(tetrahydro-2H-pyran-4-yl)-7,8-dihydroimidazo[1,5-a] pyrazin-6(5H)-one]	219 nM	25000 nM
Cn1cc(-c2cc3cccc(-c4nc(C5CC5)n5c4CN(CCO)C(=O)C5)c3cn2)cn1 [Example 6, 3-Cyclopropyl-7-(2-hydroxyethyl)-1-(3-(1-methyl-1H-pyrazol-4-yl)isoquinolin-8-yl)-7,8-dihydroimidazo[1,5-a]pyrazin-6(5H)-one]	2250 nM	25000 nM
CC1C(=O)N(C)Cc2c(-c3cccc4nc(-c5cnn(C)c5)c(C(F)F)cc34)nc(C3CCS(=O)(=O)CC3)n21 (single isomer, unassigned) [Example 29a, 1-(3-(Difluoromethyl)-2-(1-methyl-1H-pyrazol-4-yl)quinolin-5-yl)-3-(1,1-dioxidotetrahydro-2H-thiopyran-4-yl)-5,7-dimethyl-7,8-dihydroimidazo[1,5-a]pyrazin-6(5H)-one]	6500 nM	≥ 25000 nM
CC1C(=O)N(C)Cc2c(-c3cccc4cc(C5CCOCC5)ncc34)nc(C3CCOCC3)n21 (single isomer, unassigned) [Example 15b, 5,7-dimethyl-3-(tetrahydro-2H-pyran-4-yl)-1-(3-(tetrahydro-2H-pyran-4-yl)isoquinolin-8-yl)-7,8-dihydroimidazo[1,5-a]pyrazin-6(5H)-one]	2 nM	195 nM
C[C@H]1C(=O)N(C)Cc2c(-c3cccc4nc(-c5cnn(C)c5)c(C(F)F)cc34)nc(C3CCOCC3)n21 [Example 5b, (S)-1-(3-(difluoromethyl)-2-(1-methyl-1H-pyrazol-4-yl)quinolin-5-yl)-5,7-dimethyl-3-(tetrahydro-2H-pyran-4-yl)-7,8-dihydroimidazo[1,5-a]pyrazin-6(5H)-one]	2670 nM	25000 nM
C[C@@H]1C(=O)N(C)Cc2c(-c3cccc4nc(-c5cnn(C)c5)c(C(F)F)cc34)nc(C3CC3)n21 [Example 110b, (R)-3-cyclopropyl-1-(3 (difluoromethyl)-2-(1-methyl-1H-pyrazol-4-yl)quinolin-5-yl)-5,7-dimethyl-7,8-dihydroimidazo[1,5-a] pyrazin-6(5H)-one]	1 nM	407 nM
Cc1ncc(-c2cc3cccc(-c4nc(C5CCOCC5)n5c4CN(C)C(=O)C5C)c3cn2)s1 (single isomer, unassigned) [Example 31b, 5,7-Dimethyl-1-(3-(2-methylthiazol-5-yl)isoquinolin-8-yl)-3-(tetrahydro-2H-pyran-4-yl)-7,8-dihydroimidazo[1,5-a]pyrazin-6(5H)-one]	2 nM	106 nM
Cc1ccn(-c2cc3cccc(-c4nc(C5CC5)n5c4CN(C)C(=O)C5C)c3cn2)n1 (centres unmarked) [Example 73, 3-cyclopropyl-5,7-dimethyl-1-(3-(3-methyl-1H-pyrazol-1-yl)isoquinolin-8-yl)-7,8-dihydroimidazo[1,5-a] pyrazin-6(5H)-one]	3 nM	408 nM
Cc1cn(-c2cc3cccc(-c4nc(C5CC5)n5c4CN(C)C(=O)C5C)c3cn2)cn1 (centres unmarked) [Example 70, 3-cyclopropyl-5,7-dimethyl-1-(3-(4-methyl-1H-imidazol-1-yl)isoquinolin-8-yl)-7,8-dihydroimidazo[1,5-a] pyrazin-6(5H)-one]	2 nM	667 nM
CC1C(=O)N(C)Cc2c(-c3ccc4ccncc4c3)nc(C3CC3)n21 (centres unmarked) [Example 53, 3-cyclopropyl-1-(isoquinolin-7-yl)-5,7-dimethyl-7,8-dihydroimidazo[1,5-a] pyrazin-6(5H)-one]	159 nM	2960 nM
Cc1nn(C)cc1-c1nc2cccc(-c3nc(C4CC4)n4c3CN(C)C(=O)C4C)c2cc1C(F)F (centres unmarked) [Example 65, 3-cyclopropyl-1-(3-(difluoromethyl)-2-(1,3-dimethyl-1H-pyrazol-4-yl)quinolin-5-yl)-5,7-dimethyl-7,8-dihydroimidazo[1,5-a] pyrazin-6(5H)-one]	17 nM	426 nM
CN1Cc2c(N3CCCc4cc(-c5cnn(C)c5)c(C(F)F)cc43)nc(C3CC3)n2CC1=O [Example 106, 3-cyclopropyl-1-(7-(difluoromethyl)-6-(1-methyl-1H-pyrazol-4-yl)-3,4-dihydroquinolin-1(2H)-yl)-7-methyl-7,8-dihydroimidazo[1,5-a] pyrazin-6(5H)-one]	9 nM	5700 nM
CC1C(=O)N(C)Cc2c(-c3cccc4nc(-c5cnn(C)c5)c(C#N)cc34)nc(C3CCOCC3)n21 (single isomer, unassigned) [Example 8b, 5-(5,7-dimethyl-6-oxo-3-(tetrahydro-2H-pyran-4-yl)-5,6,7,8-tetrahydroimidazo[1,5-a]pyrazin-1-yl)-2-(1-methyl-1H-pyrazol-4-yl)quinoline-3-carbonitrile]	2 nM	332 nM
CC1C(=O)N(C)Cc2c(-c3cccc4cc(C5CCOCC5)ncc34)nc(C3CCOCC3)n21 (single isomer, unassigned) [Example 15a, 5,7-dimethyl-3-(tetrahydro-2H-pyran-4-yl)-1-(3-(tetrahydro-2H-pyran-4-yl)isoquinolin-8-yl)-7,8-dihydroimidazo[1,5-a]pyrazin-6(5H)-one]	170 nM	19700 nM
Cc1cn(-c2nc3cccc(-c4nc(C5CC5)n5c4CN(C)C(=O)C5C)c3cc2C(F)F)nn1 (centres unmarked) [Example 12, 3-cyclopropyl-1-(3-(difluoromethyl)-2-(4-methyl-1H-1,2,3-triazol-1-yl)quinolin-5-yl)-5,7-dimethyl-7,8-dihydroimidazo[1,5-a]pyrazin-6(5H)-one]	3 nM	130 nM
CC1C(=O)N(C)Cc2c(-c3cccc4cc(-c5nsc(=O)[nH]5)ncc34)nc(C3CC3)n21 (centres unmarked) [Example 47, 3-(8-(3-Cyclopropyl-5,7-dimethyl-6-oxo-5,6,7,8-tetrahydroimidazo[1,5-a]pyrazin-1-yl)isoquinolin-3-yl)-1,2,4-thiadiazol-5(4H)-one]	2 nM	1460 nM
CC1C(=O)N(C)Cc2c(-c3cccc4nc(-c5cn(C)cn5)c(C(F)F)cc34)nc(C3CC3)n21 (centres unmarked) [Example 69, 3-cyclopropyl-1-(3-(difluoromethyl)-2-(1-methyl-1H-imidazol-4-yl)quinolin-5-yl)-5,7-dimethyl-7,8-dihydroimidazo[1,5-a] pyrazin-6(5H)-one]	13 nM	1530 nM
